According to patent US11613542B2, “Sulfonylureas and sulfonylthioureas as NLRP3 inhibitors” (Inflazome Limited, priority 2017, dated 2023):
Where a name gives a salt, the structure may show the parent alone.

Molecular target: NLRP3 (Homo sapiens, UniProt Q96P20)
Assay: THP-1 cells pyroptosis assay
Format: cell-based
Parameters: Seed THP-1 cells (25,000 cells/well) containing 1.0 μg/ml LPS; host or cells: THP-1 cells, LPS-primed, nigericin-stimulated
Details: THP-1 cells, 1.0 μg/ml LPS, compound 3 hrs, nigericin 5 μM 1 hr, resazurin readout; read-out: THP IC50
Source text: NLRP and Pyroptosis It is well established that the activation of NLRP3 leads to cell pyroptosis and this feature plays an important part in the manifestation of clinical disease (Yan-gang Liu et al., Cell Death &Disease, 2017, 8(2), e2579; Alexander Wree et al., Hepatology, 2014, 59(3), 898-910; Alex Baldwin et al., Journal of Medicinal Chemistry, 2016, 59(5), 1691-171; Ema Ozaki et al., Journal of Inflammation Research, 2015, 8, 15-27; Zhen Xie & Gang Zhao, Neuroimmunology Neuroinflammation, 2014, 1(2), 60-65; Mattia Cocco et al., Journal of Medicinal Chemistry, 2014, 57(24), 10366-10382; T. Satoh et al., Cell Death &Disease, 2013, 4, e644). Therefore, it is anticipated that inhibitors of NLRP3 will block pyroptosis, as well as the release of pro-inflammatory cytokines (e.g. […]) from the cell. THP-1 Cells: Culture and Preparation THP-1 cells (ATCC #TIB-202) were grown in RPMI containing L-glutamine (Gibco #11835) supplemented with imM sodium pyruvate (Sigma #S8636) and penicillin (100 units/ml)/streptomycin (0.1 mg/ml) (Sigma #P4333) in 10% Fetal Bovine Serum (FBS) (Sigma #Fo804). The cells were routinely passaged and grown to confluency (˜10^6 cells/ml). On the day of the experiment, THP-1 cells were harvested and resuspended into RPMI medium (without FBS). The cells were then counted and viability (>90%) checked by Trypan blue (Sigma #T8154). Appropriate dilutions were made to give a concentration of 625,000 cells/ml. To this diluted cell solution was added LPS (Sigma #L4524) to give a […] Final Assay Concentration (FAC). 40 μl of the final preparation was aliquoted into each well of a 96-well plate. The plate thus prepared was used for compound screening. THP-1 Cells Pyroptosis Assay The following method step-by-step assay was followed for compound screening. • 1. Seed THP-1 cells (25,000 cells/well) containing 1.0 μg/ml LPS in 40 μl of RPMI medium (without FBS) in 96-well, black walled, clear bottom cell culture plates coated with poly-D-lysine (VWR #734-0317) • 2. Add […] compound (8 points half-log dilution, with 10 μM top dose) or vehicle (DMSO 0.1% FAC) to the appropriate wells • 3. […] Add 5 μl nigericin (Sigma #N7143) (FAC 5 μM) to all wells • 5. […] At the end of the incubation period, spin plates at 300 xg for 3 mins and remove supernatant • 7. Then add 50 μl of resazurin (Sigma #R7017) (FAC 100μ M resazurin in RPMI medium without FBS) and incubate plates for a further 1-2 hrs at 37° C. and 5% CO2 • 8. Plates were read in an Envision reader at Ex 560 nm and Em 590 nm • 9. IC50 data is fitted to a non-linear regression equation (log inhibitor vs response-variable slope 4-parameters) [table]

Sequence of NLRP3 (Q96P20 whole entry): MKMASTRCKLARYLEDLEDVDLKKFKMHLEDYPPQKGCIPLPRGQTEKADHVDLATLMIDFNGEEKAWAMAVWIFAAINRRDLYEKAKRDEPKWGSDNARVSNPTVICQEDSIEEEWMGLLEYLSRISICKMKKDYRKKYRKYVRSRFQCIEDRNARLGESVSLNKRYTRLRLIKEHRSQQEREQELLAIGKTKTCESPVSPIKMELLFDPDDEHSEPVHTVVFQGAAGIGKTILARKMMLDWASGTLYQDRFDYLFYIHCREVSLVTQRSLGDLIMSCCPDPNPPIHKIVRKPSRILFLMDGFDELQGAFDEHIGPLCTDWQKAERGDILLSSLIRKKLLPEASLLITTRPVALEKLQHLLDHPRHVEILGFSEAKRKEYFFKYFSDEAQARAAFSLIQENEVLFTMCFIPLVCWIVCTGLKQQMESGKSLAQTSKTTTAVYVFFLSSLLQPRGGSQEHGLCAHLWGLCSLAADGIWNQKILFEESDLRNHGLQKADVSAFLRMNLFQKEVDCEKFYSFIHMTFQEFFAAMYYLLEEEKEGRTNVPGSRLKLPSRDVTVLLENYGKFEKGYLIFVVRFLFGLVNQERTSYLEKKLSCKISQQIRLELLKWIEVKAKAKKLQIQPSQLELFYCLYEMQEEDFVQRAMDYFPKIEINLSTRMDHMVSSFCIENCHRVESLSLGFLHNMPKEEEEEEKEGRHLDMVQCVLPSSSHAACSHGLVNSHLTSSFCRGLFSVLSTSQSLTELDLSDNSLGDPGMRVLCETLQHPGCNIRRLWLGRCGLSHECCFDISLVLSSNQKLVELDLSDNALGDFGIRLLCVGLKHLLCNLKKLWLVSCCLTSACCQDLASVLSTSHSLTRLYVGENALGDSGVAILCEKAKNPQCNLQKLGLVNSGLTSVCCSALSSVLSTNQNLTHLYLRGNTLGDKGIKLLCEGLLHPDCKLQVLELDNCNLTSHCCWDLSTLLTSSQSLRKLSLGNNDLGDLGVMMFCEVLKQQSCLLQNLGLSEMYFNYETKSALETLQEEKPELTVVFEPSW

Structure (SMILES): O=C(Nc1c2c(cc3c1CCC3)CCC2)NS(=O)(=O)c1ccn(Cc2ncccn2)n1 [Example 22, N-((1,2,3,5,6,7-Hexahydro-s-indacen-4-yl)carbamoyl)-1-(pyrimidin-2-ylmethyl)-1H-pyrazole-3-sulfonamide]
- IC50: < 2560 nM

Structure (SMILES): CN1CCC(n2ccc(S(=O)(=O)NC(=O)Nc3c4c(cc5c3CCC5)CCC4)n2)CC1 [Example 31, N-((1,2,3,5,6,7-Hexahydro-s-indacen-4-yl)carbamoyl)-1-(1-methylpiperidin-4-yl)-1H-pyrazole-3-sulfonamide]
- IC50: < 2560 nM

Structure (SMILES): CN(C)CCCn1ccc(S(=O)(=O)NC(=O)Nc2c3c(cc4c2CCC4)CCC3)n1 [Example 32, 1-(3-(Dimethylamino)propyl)-N-((1,2,3,5,6,7-hexahydro-s-indacen-4-yl)carbamoyl)-1H-pyrazole-3-sulfonamide]
- IC50: < 2560 nM

Structure (SMILES): O=C(Nc1c2c(cc3c1CCC3)CCC2)NS(=O)(=O)c1ccn(-c2ccccn2)n1 [Example 119, N-((1,2,3,5,6,7-Hexahydro-s-indacen-4-yl)carbamoyl)-1-(pyridin-2-yl)-1H-pyrazole-3-sulfonamide, sodium salt]
- IC50: < 2560 nM

Structure (SMILES): O=C(Nc1c2c(cc3c1CCC3)CCC2)NS(=O)(=O)c1ccn(-c2nccs2)n1 [Example 120, N-((1,2,3,5,6,7-Hexahydro-s-indacen-4-yl)carbamoyl)-1-(thiazol-2-yl)-1H-pyrazole-3-sulfonamide, sodium salt]
- IC50: < 2560 nM

Structure (SMILES): O=C(Nc1c2c(cc3c1CCC3)CCC2)NS(=O)(=O)c1ccn(-c2cccnc2)n1 [Example 121, N-((1,2,3,5,6,7-Hexahydro-s-indacen-4-yl)carbamoyl)-1-(pyridin-3-yl)-1H-pyrazole-3-sulfonamide]
- IC50: < 2560 nM

Structure (SMILES): CC(C)c1cc(F)cc(C(C)C)c1NC(=O)NS(=O)(=O)c1cc(CN(C)CCO)n(C)n1 [Example 123, N-((4-Fluoro-2,6-diisopropylphenyl)carbamoyl)-5-(((2-hydroxyethyl)(methyl)amino)methyl)-1-methyl-1H-pyrazole-3-sulfonamide]
- IC50: < 640 nM

Structure (SMILES): COCCN(C)Cc1cc(S(=O)(=O)NC(=O)Nc2c(C(C)C)cc(F)cc2C(C)C)nn1C [Example 125, N-((4-Fluoro-2,6-diisopropylphenyl)carbamoyl)-5-(((2-methoxyethyl)(methyl)amino)methyl)-1-methyl-1H-pyrazole-3-sulfonamide, sodium salt]
- IC50: < 2560 nM

Structure (SMILES): CC(C)c1cc(Cl)cc(C(C)C)c1NC(=O)NS(=O)(=O)c1cc(CN2CCOCC2)n(C)n1 [Example 127, N-((4-Chloro-2,6-diisopropylphenyl)carbamoyl)-1-methyl-5-(morpholinomethyl)-1H-pyrazole-3-sulfonamide, sodium salt]
- IC50: < 2560 nM

Structure (SMILES): Cn1nc(S(=O)(=O)NC(=O)Nc2c3c(cc4c2CCC4)CCC3)cc1CN1CCOCC1 [Example 128, N-((1,2,3,5,6,7-Hexahydro-s-indacen-4-yl)carbamoyl)-1-methyl-5-(morpholinomethyl)-1H-pyrazole-3-sulfonamide]
- IC50: < 2560 nM

Structure (SMILES): CC(C)c1cc(F)cc(C(C)C)c1NC(=O)NS(=O)(=O)c1cc(C(=O)N2CCC2)n(C(C)C)n1 [Example 130, 5-(azetidine-1-carbonyl)-N-((4-fluoro-2,6-diisopropylphenyl)carbamoyl)-1-isopropyl-1H-pyrazole-3-sulfonamide]
- IC50: < 640 nM

Structure (SMILES): CC(C)c1ccc(-c2cncnc2)cc1NC(=O)NS(=O)(=O)c1cc(C(=O)N(C)C)n(C)n1 [Example 134, 3-(N-((2-Isopropyl-5-(pyrimidin-5-yl)phenyl)carbamoyl)sulfamoyl)-N,N,1-trimethyl-1H-pyrazole-5-carboxamide, sodium salt]
- IC50: < 2560 nM

Structure (SMILES): CC(C)c1ccc(-c2cnn(C)c2)cc1NC(=O)NS(=O)(=O)c1cc(C(=O)N(C)C)n(C)n1 [Example 136, 3-(N-((2-Isopropyl-5-(1-methyl-1H-pyrazol-4-yl)phenyl)carbamoyl)sulfamoyl)-N,N,1-trimethyl-1H-pyrazole-5-carboxamide, sodium salt]
- IC50: < 2560 nM

Structure (SMILES): CC(C)NC(=O)c1cc(S(=O)(=O)NC(=O)Nc2c(C(C)C)cccc2C(C)C)nn1C [Example 138, 3-(N-((2,6-Diisopropylphenyl)carbamoyl)sulfamoyl)-N-isopropyl-1-methyl-1H-pyrazole-5-carboxamide]
- IC50: < 10000 nM

Structure (SMILES): CC(C)c1cccc(C(C)C)c1NC(=O)NS(=O)(=O)c1cc(C(=O)N(C)CC#N)n(C)n1 [Example 140, N-(Cyanomethyl)-3-(N-((2,6-diisopropylphenyl)carbamoyl)sulfamoyl)-N,1-dimethyl-1H-pyrazole-5-carboxamide]
- IC50: < 10000 nM

Structure (SMILES): CC(C)NC(=O)c1cc(S(=O)(=O)NC(=O)Nc2c3c(cc4c2CCC4)CCC3)nn1C [Example 146, 3-(N-((1,2,3,5,6,7-Hexahydro-s-indacen-4-yl)carbamoyl)sulfamoyl)-N-isopropyl-1-methyl-1H-pyrazole-5-carboxamide]
- IC50: < 10000 nM

Structure (SMILES): CCN(CC)C(=O)c1cc(S(=O)(=O)NC(=O)Nc2c(C(C)C)cc(F)cc2C(C)C)nn1C [Example 148, N,N-Diethyl-3-(N-((4-fluoro-2,6-diisopropylphenyl)carbamoyl)sulfamoyl)-1-methyl-1H-pyrazole-5-carboxamide, sodium salt]
- IC50: < 640 nM

Structure (SMILES): CCN(CC)C(=O)c1cc(S(=O)(=O)NC(=O)Nc2c(C(C)C)cccc2C(C)C)nn1C [Example 157, 3-(N-((2,6-Diisopropylphenyl)carbamoyl)sulfamoyl)-N,N-diethyl-1-methyl-1H-pyrazole-5-carboxamide]
- IC50: < 2560 nM

Structure (SMILES): Cn1nc(S(=O)(=O)NC(=O)Nc2c3c(cc4c2CCC4)CCC3)cc1C(=O)N1CCCC1 [Example 159, N-((1,2,3,5,6,7-Hexahydro-s-indacen-4-yl)carbamoyl)-1-methyl-5-(pyrrolidine-1-carbonyl)-1H-pyrazole-3-sulfonamide]
- IC50: < 2560 nM

Structure (SMILES): Cn1nc(S(=O)(=O)NC(=O)Nc2c3c(cc4c2CCC4)CCC3)cc1C(=O)N1CC(F)C1 [Example 161, 5-(3-Fluoroazetidine-1-carbonyl)-N-((1,2,3,5,6,7-hexahydro-s-indacen-4-yl)carbamoyl)-1-methyl-1H-pyrazole-3-sulfonamide, partial ammonium salt]
- IC50: < 2560 nM

Structure (SMILES): CC(C)c1cccc(C(C)C)c1NC(=O)NS(=O)(=O)c1cc(C(=O)N2CCCC2)n(C)n1 [Example 163, N-((2,6-Diisopropylphenyl)carbamoyl)-1-methyl-5-(pyrrolidine-1-carbonyl)-1H-pyrazole-3-sulfonamide]
- IC50: < 2560 nM

Structure (SMILES): CNC(=O)c1cc(S(=O)(=O)NC(=O)Nc2c3c(cc4c2CCC4)CCC3)nn1C [Example 166, 3-(N-((1,2,3,5,6,7-Hexahydro-s-indacen-4-yl)carbamoyl)sulfamoyl)-N,1-dimethyl-1H-pyrazole-5-carboxamide]
- IC50: < 2560 nM

Structure (SMILES): CC(C)c1cccc(C(C)C)c1NC(=O)NS(=O)(=O)c1cc(C(=O)N(C)CCO)n(C)n1 [Example 173, 3-(N-((2,6-Diisopropylphenyl)carbamoyl)sulfamoyl)-N-(2-hydroxyethyl)-N,1-dimethyl-1H-pyrazole-5-carboxamide]
- IC50: < 2560 nM

Structure (SMILES): Cn1nc(S(=O)(=O)NC(=O)Nc2c3c(cc4c2CCC4)CCC3)cc1C(=O)NCCO [Example 174, 3-(N-((1,2,3,5,6,7-Hexahydro-s-indacen-4-yl)carbamoyl)sulfamoyl)-N-(2-hydroxyethyl)-1-methyl-1H-pyrazole-5-carboxamide, partial ammonium salt]
- IC50: < 10000 nM

Structure (SMILES): COCCNC(=O)c1cc(S(=O)(=O)NC(=O)Nc2c3c(cc4c2CCC4)CCC3)nn1C [Example 175, 3-(N-((1,2,3,5,6,7-Hexahydro-s-indacen-4-yl)carbamoyl)sulfamoyl)-N-(2-methoxyethyl)-1-methyl-1H-pyrazole-5-carboxamide, partial ammonium salt]
- IC50: < 10000 nM

Structure (SMILES): CN(C)CCn1cc(S(=O)(=O)NC(=O)Nc2c3c(cc4c2CCC4)CCC3)cn1 [Example 182, 1-(2-(Dimethylamino)ethyl)-N-((1,2,3,5,6,7-hexahydro-s-indacen-4-yl)carbamoyl)-1H-pyrazole-4-sulfonamide]
- IC50: < 2560 nM
